What all share (test): NCI anticancer screen, dose series, 48 h
The test system of experiment [1] is ACHN renal.
Experiment [2] deals with MDA-MB-231 breast.
Experiment [3] deals with 786-0 renal.
In experiment [4] the test system is SK-MEL-28 melanoma.

Several values for one entry are separate records, joined by “and”; a condition that tells them apart may be missing. Equal values may be shown once.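 Five compound concentrations were applied to cells in 96-well plates for 48 hours; endpoints were derived by simple linear interpolation of the resulting dose-response curve. The concentration for 50% growth inhibition is given as GI50. The concentration for full growth arrest is given as TGI.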

Consider `CC(=O)CCC[C@H](C)[C@@H](O)[C@@H]1O[C@H]([C@@]2(C)CCC(=O)O2)C[C@H]1C(=O)O`, for which the TGI in experiment [1], in experiment [2], in experiment [3] and in experiment [4] was above 100 µM in each case.
Turning to `Cc1ccc(S(=O)(=O)Nn2c(O)c(C#N)c(-c3ccc(N(C)C)cc3)c(C#N)c2=O)cc1`, the TGI in experiment [1], in experiment [2], in experiment [3] and in experiment [4] was above 50 µM throughout.
Take `O=c1c2cc(S(=O)(=O)Nc3c(Cl)cccc3Cl)ccc2ncn1NS(=O)(=O)c1ccc2ccccc2c1`: the TGI in experiment [1], in experiment [2], in experiment [3] and in experiment [4] was above 62.5 µM in each case.
Consider `COC(=O)C1(C(=O)OC)CC2=C(S(=O)(=O)c3ccccc3)C[C@H](C#N)[C@H]2C1`, for which the TGI in experiment [1], in experiment [2], in experiment [3] and in experiment [4] was above 100 µM throughout.
As to `OC(CC(O)(C(F)(F)F)C(F)(F)F)C(O)c1ccco1` (stereo unspecified), the TGI in experiment [1], in experiment [2], in experiment [3] and in experiment [4] was above 10 µM each time.
Regarding `O=C1COCCN1C(=O)c1ccccc1Cl`, the TGI in experiment [1], in experiment [2], in experiment [3] and in experiment [4] was above 100 µM in each case.
For `CC1=C2CN(C(=O)OCC(C)C)CCC2C2=C(C(=O)c3ccccc3C2=O)C1C` (stereo unspecified), the TGI in experiment [2], in experiment [3] and in experiment [4] was above 10 µM throughout.
`CCOC(=O)c1cc(C#N)[nH]c1-c1ccsc1`: the TGI in experiment [1], in experiment [2], in experiment [3] and in experiment [4] was above 100 µM throughout.
`Cc1cn(C2CC(NC(=NCC3OC(n4cnc5c(N)ncnc54)CC3O)NC#N)C(CO)O2)c(=O)[nH]c1=O` (stereo unspecified): the TGI in experiment [1], in experiment [2], in experiment [3] and in experiment [4] was above 100 µM throughout.
On to `CC1c2cc(c3c(c2O)CN([C@@H](C)C2CCCCC2)CO3)C(C)c2cc(c3c(c2O)CN([C@@H](C)C2CCCCC2)CO3)C(C)c2cc(c3c(c2O)CN([C@@H](C)C2CCCCC2)CO3)C(C)c2cc1c1c(c2O)CN([C@@H](C)C2CCCCC2)CO1` (stereo partly specified), for which the TGI is 2.78 µM in experiment [1], 2.7 µM in experiment [2], 2.4 µM in experiment [3] and 3.55 µM in experiment [4].
With `O=C(O)c1ccc(NNC(=O)c2cccc3c(=O)c4ccccc4[nH]c23)cc1`, the TGI in experiment [1], in experiment [2], in experiment [3] and in experiment [4] was above 100 µM in each case.
With `COc1ccc(C(SCC(N)C(=O)O)(c2ccc(OC)cc2)c2ccc(OC)cc2)cc1` (stereo unspecified), the TGI stood at 18.6 µM in experiment [1], 19.6 µM in experiment [2], 20.3 µM in experiment [3] and 16.8 µM in experiment [4].
For `CC1C(O)Oc2cc3c(cc2C1c1ccccc1O)OCO3` (stereo unspecified), in that order: above 100 µM, 65.4 µM, above 100 µM and 84 µM.
On to `COc1cccc(Nc2nc(N)nc(N)c2N=O)c1`, for which the TGI was 89 µM in experiment [1], above 100 µM in experiment [2], 70.2 µM in experiment [3] and 69.8 µM in experiment [4].
Take `CN(C)CCCN1c2ccccc2CCc2cc([N+](=O)[O-])ccc21`: the TGI in experiment [1] was 90.4 µM and 30 µM; in experiment [2] it was 52.7 µM and 30.2 µM; in experiment [3] it was 66 µM and 28.9 µM; in experiment [4], 80.9 µM and 28.2 µM. Also, in experiment [4], the GI50 was 28.2 µM and 13.9 µM.
Take `O=c1[nH]c2cc([N+](=O)[O-])ccc2nc1/C=C(\O)c1ccc(Cl)cc1`: the TGI came to 31.4 µM in experiment [1], 24.7 µM in experiment [2], 14.4 µM in experiment [3] and 22.9 µM in experiment [4].
Taken in the same sequence, the figures for `CCO/C=C(\C(=O)OC)S(=O)(=O)c1ccc(C)cc1` were above 100 µM, above 100 µM, above 100 µM and above 100 µM.
For the compound `Cc1ccc(/C=N/NS(=O)(=O)c2ccc(/C=C3\NC(=O)NC3=O)cc2)cc1`, the TGI in experiment [1], in experiment [2], in experiment [3] and in experiment [4] was above 100 µM in each case.
In the case of `CC1=CC(=O)/C(=C/n2c(=S)[nH]c3ccc([N+](=O)[O-])cc32)C(=O)O1`, the TGI in experiment [1], in experiment [2], in experiment [3] and in experiment [4] was above 100 µM throughout.
Take `CCOP(=O)(OCC)C(F)(F)Cc1cnc(C)c2c1COC(C)(C)O2`: the TGI in experiment [1], in experiment [2], in experiment [3] and in experiment [4] was above 10 µM throughout.
Take `COc1cccc(C2c3cc4c(cc3OC(N3CCCCC3)C2C)OCO4)c1OC` (stereo unspecified): the TGI was 35.1 µM in experiment [1], 41 µM in experiment [2], above 100 µM in experiment [3] and 46.7 µM in experiment [4].
`O=C(/C=C/c1ccc2c(c1)OCO2)CC(=O)/C=C/c1ccc2c(c1)OCO2`: the TGI in experiment [1], in experiment [2] and in experiment [3] was above 100 µM throughout.
`CCOC(=O)c1cc2cc(C)cc(C(=O)c3ccc([N+](=O)[O-])cc3)c2[nH]1`: the TGI in experiment [1], in experiment [2], in experiment [3] and in experiment [4] was above 100 µM in each case.
On to `O=C(c1ccccc1)C1C[C@H]2CO[C@H](c3ccccc3)N2C1=O` (stereo partly specified), for which the TGI in experiment [1], in experiment [2], in experiment [3] and in experiment [4] was above 100 µM in each case.
`O=C(Nc1ccc(Cl)cc1)NS(=O)(=O)c1c(-c2ccccc2)oc2ccccc2c1=O`: the TGI in experiment [1], in experiment [3] and in experiment [4] was above 100 µM throughout.
For the compound `CN(C)c1nc(=NCc2cccnc2)ss1`, the TGI in experiment [2], in experiment [3] and in experiment [4] was above 10 µM throughout.

For the origin of these results see PubChem BioAssay (NCI).
